# Results from patent US20240101531A1, “PYRIDINAMINE DERIVATIVES AND THEIR USE AS POTASSIUM CHANNEL MODULATORS” (Xenon Pharmaceuticals Inc., priority 2022, published 2024).
# pEC50: −log10 of the molar value. Counter-ions that a name gives are not always drawn.
# Target: human KV7.2/KV7.3 (Homo sapiens (Human), UniProt O43525+O43526)
# Assay: Potassium flux assay (IPG-2 AM dye)
# Format: cell-based
# Conditions: TREX HEK 293 or HEK 293 cells expressing human KV7.2/KV7.3; arithmetic mean values
# Method in brief: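 EC50 from 16 concentrations (2-fold dilutions, top 30 μM), scaled between DMSO baseline and a known KV7.x modulator maximum. Signal is IPG-2 AM fluorescence (ex 530/em 558 nm) after 10 mM KCl challenge buffer addition, following 20 min room-temperature compound exposure of HEK 293 or TREX HEK 293 cells stably expressing human KV7.2/KV7.3.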
row,SMILES,pEC50
1,"N#C[C@H]1CCC[C@@H](Oc2ccc3c(Nc4ccc(Cl)nc4)nccc3c2)C1 [Example 345, (1 S,3R)-3-((1-((6-chloropyridin-3-yl)amino)isoquinolin-6-yl)oxy)cyclohexane-1-carbonitrile]",5.00 to 6.00
2,"O[C@@H]1CCC[C@H](Oc2ccc3c(Nc4ccc(Cl)nc4)nccc3c2)C1 [Example 346, (1R,3S)-3-((1-((6-chloropyridin-3-yl)amino)isoquinolin-6-yl)oxy)cyclohexan-1-ol]",> 6.00
3,"O[C@H]1CCC[C@@H](Oc2ccc3c(Nc4ccc(Cl)nc4)nccc3c2)C1 [Example 347, (1 S,3R)-3-((1-((6-chloropyridin-3-yl)amino)isoquinolin-6-yl)oxy)cyclohexan-1-ol]",> 6.00
4,"N#CC1(COc2ccc3c(Nc4cnc(Cl)nc4)nccc3c2)CC12CC2 (stereo not shown) [Example 349, 1-(((1-((2-chloropyrimidin-5-yl)amino)isoquinolin-6-yl)oxy)methyl)spiro[2.2]pentane-1-carbonitrile]",> 6.00
5,"O[C@H]1CC[C@H](Oc2ccc3c(Nc4ccc(Cl)nc4)nccc3c2)CC1 [Example 350, (1r,4r)-4-((1-((6-chloropyridin-3-yl)amino)isoquinolin-6-yl)oxy)cyclohexan-1-ol]",5.00 to 6.00
6,"CC1(C)CC1(C#N)COc1ccc2c(Nc3cnc(Cl)nc3)nccc2c1 (stereo not shown) [Example 351, 1-(((1-((2-chloropyrimidin-5-yl)amino)isoquinolin-6-yl)oxy)methyl)-2,2-dimethylcyclopropane-1-carbonitrile]",> 6.00
7,"Cc1c(COc2ccc3c(Nc4cnc(Cl)nc4)nccc3c2)cnn1C [Example 352, N-(2-chloropyrimidin-5-yl)-6-((1,5-dimethyl-1H-pyrazol-4-yl)methoxy)isoquinolin-1-amine]",> 6.00
8,"Cc1ncc(Nc2nccc3cc(OCc4cnn(C)c4C)ccc23)cn1 [Example 353, 6-((1,5-dimethyl-1H-pyrazol-4-yl)methoxy)-N-(2-methylpyrimidin-5-yl)isoquinolin-1-amine]",> 6.00
9,"CC(F)(F)C1(COc2ccc3c(Nc4cnc(Cl)nc4)nccc3c2)COC1 [Example 355, N-(2-chloropyrimidin-5-yl)-6-((3-(1,1-difluoroethyl)oxetan-3-yl)methoxy)isoquinolin-1-amine]",> 6.00
10,"CC(C)(C)OC(=O)N[C@H]1CCC[C@@H](Oc2ccc3c(Nc4cnc(Cl)nc4)nccc3c2)C1 [Example 356, tert-butyl ((1S,3R)-3-((1-((2-chloropyrimidin-5-yl)amino)isoquinolin-6-yl)oxy)cyclohexyl)carbamate]",> 6.00
11,"O[C@H]1CCC[C@@H](Oc2ccc3c(Nc4cnc(Cl)nc4)nccc3c2)C1 [Example 359, (1 S,3R)-3-((1-((2-chloropyrimidin-5-yl)amino)isoquinolin-6-yl)oxy)cyclohexan-1-ol]",> 6.00
12,"NC(=O)C1(COc2ccc3c(Nc4cnc(Cl)nc4)nccc3c2)CC1 [Example 361, 1-(((1-((2-chloropyrimidin-5-yl)amino)isoquinolin-6-yl)oxy)methyl)cyclopropane-1-carboxamide]",> 6.00
13,"Clc1ccc(Nc2nccc3cc(OCC4(OCc5ccncc5)CC4)ccc23)cn1 [Example 362, N-(6-chloropyridin-3-yl)-6-((1-(pyridin-4-ylmethoxy)cyclopropyl)methoxy)isoquinolin-1-amine]",5.00 to 6.00
14,"FC1(COc2ccc3c(Nc4ccc(Cl)nc4)nccc3c2)CCOC1 (stereo not shown) [Example 363, N-(6-chloropyridin-3-yl)-6-((3-fluorotetrahydrofuran-3-yl)methoxy)isoquinolin-1-amine]",> 6.00
15,"Clc1ccc(Nc2nccc3cc(OCc4cnoc4)ccc23)cn1 [Example 368, N-(6-chloropyridin-3-yl)-6-(isoxazol-4-ylmethoxy)isoquinolin-1-amine]",> 6.00
16,"N#CC1(COc2ccc3c(Nc4cnc(Cl)nc4)nccc3c2)CCC1 [Example 369, 1-(((1-((2-chloropyrimidin-5-yl)amino)isoquinolin-6-yl)oxy)methyl)cyclobutane-1-carbonitrile]",> 6.00
17,"COc1ncc(Nc2nccc3cc(OCC4(C)COC4)ccc23)cn1 [Example 370, N-(2-methoxypyrimidin-5-yl)-6-((3-methyloxetan-3-yl)methoxy)isoquinolin-1-amine]",> 6.00
18,"COc1ncc(Nc2nccc3cc(OCc4cnn(C)c4)ccc23)cn1 [Example 371, N-(2-methoxypyrimidin-5-yl)-6-((1-methyl-1H-pyrazol-4-yl)methoxy)isoquinolin-1-amine]",> 6.00
19,"COc1ncc(Nc2nccc3cc(OCC4CC4)ccc23)cn1 [Example 372, 6-(cyclopropylmethoxy)-N-(2-methoxypyrimidin-5-yl)isoquinolin-1-amine]",5.00 to 6.00

# The next lines start with the values.
row,pEC50,SMILES
1,> 6.00,"COc1ncc(Nc2nccc3cc(OCC4(C#N)CC4)ccc23)cn1 [Example 373, 1-(((1-((2-methoxypyrimidin-5-yl)amino)isoquinolin-6-yl)oxy)methyl)cyclopropane-1-carbonitrile]"
2,> 6.00,"Cn1cc(COc2ccc3c(Nc4cnc(Cl)c(O)c4)nccc3c2)cn1 [Example 374, 2-chloro-5-((6-((1-methyl-1H-pyrazol-4-yl)methoxy)isoquinolin-1-yl)amino)pyridin-3-ol]"
3,5.00 to 6.00,"O=C(N[C@@H]1CCC[C@H](Oc2ccc3c(Nc4cnc(Cl)nc4)nccc3c2)C1)C(F)(F)F [Example 375, N-((1R,3S)-3-((1-((2-chloropyrimidin-5-yl)amino)isoquinolin-6-yl)oxy)cyclohexyl)-2,2,2-trifluoroacetamide]"
4,> 6.00,"CC(=O)N[C@@H]1CCC[C@H](Oc2ccc3c(Nc4cnc(Cl)nc4)nccc3c2)C1 [Example 376, N-((1R,3S)-3-((1-((2-chloropyrimidin-5-yl)amino)isoquinolin-6-yl)oxy)cyclohexyl)acetamide]"
5,> 6.00,"O=C(N[C@H]1CCC[C@@H](Oc2ccc3c(Nc4cnc(Cl)nc4)nccc3c2)C1)C(F)(F)F [Example 377, N-((1 S,3R)-3-((1-((2-chloropyrimidin-5-yl)amino)isoquinolin-6-yl)oxy)cyclohexyl)-2,2,2-trifluoroacetamide]"
6,> 6.00,"CC(=O)N[C@H]1CCC[C@@H](Oc2ccc3c(Nc4cnc(Cl)nc4)nccc3c2)C1 [Example 378, N-((1 S,3R)-3-((1-((2-chloropyrimidin-5-yl)amino)isoquinolin-6-yl)oxy)cyclohexyl)acetamide]"
7,> 6.00,"Clc1ccc(Nc2nccc3cc(OCc4cn[nH]c4C4CC4)ccc23)cn1 [Example 379, N-(6-chloropyridin-3-yl)-6-((5-cyclopropyl-1H-pyrazol-4-yl)methoxy)isoquinolin-1-amine]"
8,> 6.00,"FC(F)Cn1cc(COc2ccc3c(Nc4ccc(Cl)nc4)nccc3c2)cn1 [Example 380, N-(6-chloropyridin-3-yl)-6-((1-(2,2-difluoroethyl)-1H-pyrazol-4-yl)methoxy)isoquinolin-1-amine]"
9,> 6.00,"Clc1ncc(Nc2nccc3cc(OCc4cn[nH]c4)ccc23)cn1 [Example 381, 6-((1H-pyrazol-4-yl)methoxy)-N-(2-chloropyrimidin-5-yl)isoquinolin-1-amine]"
10,> 6.00,"Clc1ncc(Nc2nccc3cc(OC[C@H]4COCCO4)ccc23)cn1 [Example 382, (R)-6-((1,4-dioxan-2-yl)methoxy)-N-(2-chloropyrimidin-5-yl)isoquinolin-1-amine]"
11,> 6.00,"Clc1ncc(Nc2nccc3cc(OC[C@@H]4COCCO4)ccc23)cn1 [Example 383, (S)-6-((1,4-dioxan-2-yl)methoxy)-N-(2-chloropyrimidin-5-yl)isoquinolin-1-amine]"
12,> 6.00,"[2H]C([2H])(Oc1ccc2c(Nc3cnc(Cl)nc3)nccc2c1)C1(F)CC1 [Example 384, N-(2-chloropyrimidin-5-yl)-6-((1-fluorocyclopropyl)methoxy-d2)isoquinolin-1-amine]"
13,> 6.00,"CC(Oc1ccc2c(Nc3cnc(Cl)nc3)nccc2c1)C1(C#N)CC1 (stereo not shown) [Example 385, 1-(1-((1-((2-chloropyrimidin-5-yl)amino)isoquinolin-6-yl)oxy)ethyl)cyclopropane-1-carbonitrile]"
14,> 6.00,"[2H]C([2H])(Oc1ccc2c(Nc3ccc(Cl)nc3)nccc2c1)c1cnn(C)c1 [Example 386, N-(6-chloropyridin-3-yl)-6-((1-methyl-1H-pyrazol-4-yl)methoxy-d2)isoquinolin-1-amine]"
15,5.00 to 6.00,"Clc1ccc(Nc2nccc3cc(OCCc4ncccn4)ccc23)cn1 [Example 387, N-(6-chloropyridin-3-yl)-6-(2-(pyrimidin-2-yl)ethoxy)isoquinolin-1-amine]"
16,> 6.00,"COc1ncc(Nc2nccc3cc(OCc4cn[nH]c4C)ccc23)cn1 [Example 388, N-(2-methoxypyrimidin-5-yl)-6-((5-methyl-1H-pyrazol-4-yl)methoxy)isoquinolin-1-amine]"
17,> 6.00,"Clc1ncc(Nc2nccc3cc(OCCCc4cn[nH]c4)ccc23)cn1 [Example 389, 6-(3-(1H-pyrazol-4-yl)propoxy)-N-(2-chloropyrimidin-5-yl)isoquinolin-1-amine]"
18,> 6.00,"Clc1ncc(Nc2nccc3cc(OCCc4cn[nH]c4)ccc23)cn1 [Example 390, 6-(2-(1H-pyrazol-4-yl)ethoxy)-N-(2-chloropyrimidin-5-yl)isoquinolin-1-amine formate]"
19,5.00 to 6.00,"Clc1ccc(Nc2nccc3cc(OCc4cc[nH]n4)ccc23)cn1 [Example 391, 6-((1H-pyrazol-3-yl)methoxy)-N-(6-chloropyridin-3-yl)isoquinolin-1-amine]"
20,5.00 to 6.00,"Cc1cc(COc2ccc3c(Nc4ccc(Cl)nc4)nccc3c2)n[nH]1 [Example 392, N-(6-chloropyridin-3-yl)-6-((5-methyl-1H-pyrazol-3-yl)methoxy)isoquinolin-1-amine]"
21,> 6.00,"Cc1n[nH]cc1COc1ccc2c(Nc3ccc(Cl)nc3)nccc2c1 [Example 393, N-(6-chloropyridin-3-yl)-6-((3-methyl-1H-pyrazol-4-yl)methoxy)isoquinolin-1-amine]"
